Article PMC6379152 (Cellular microbiology, 2018)

Tested on: rHSGGT1 (HSGGT1)
Test: pNA release at […] nm, Michaelis-Menten fit
Type: biochemical, Helicobacter saguini
Settings: 20 mM glycylglycine as acceptor; Tris-HCl pH 8; 37 C; mean of three batches

N[C@@H](CCC(=O)Nc1ccc([N+](=O)[O-])cc1)C(=O)O [GpNA, L-y-glutamyl-p nitroanilide]
Km: 12.3 ± 2.35 µM
